From patent US20260109725A1, “MACROLIDE SENOLYTIC COMPOUNDS” (LUNELLA BIOTECH, INC., priority 2022, published 2026)

System: MRC-5 cells treated with BrdU (senescent fibroblasts)
Assay: SRB assay, BrdU-treated (senescent) MRC-5 cells
Format: cell-based, human
Procedure: For example, in one assay bromodeoxyuridine (5-bromo-2′-deoxyuridine), also known as BrdU, was used to induce senescence in a cell population. BrdU is an analog of the nucleoside thymidine commonly used to identify proliferating cells. BrdU induces controlled DNA damage, and drives cells towards senescence with high efficiency. In the BrdU assay, normal fibroblasts are subjected to prolonged culture (8-days) in the presence of BrdU at 100 μM to induce controlled DNA-damage and senescence. […] Senolytic activity was assessed using the sulforhodamine B assay, also known in the art as the SRB assay. This assay measures the amount of protein remaining attached to the tissue-culture dishes, and is a surrogate marker for cell viability.
FIG. 1 compares SRB assay results for different concentrations of Azithromycin (100 µM and 50 μM) and Compound [I] (100 μM and 50 μM) of the present approach, on both control MRC-5 cells and MRC-5 cells treated with BrdU. […] (labelled as “Azi-Gal” in FIG. 1) for another 5 days. After that, the SRB assay was performed to determine the effects of the drug on cell viability, using normal MRC-5 cells as the control. […] However, at 50 μM Azithromycin had no effect on either the control cells or senescent cells.
BrdU Assay: Cells were plated into 24-well plates. Next day, half of the plate was treated with 100 μM of BrdU while control wells were treated with vehicle only (DMSO) and incubated for 8 days at 37° C. in a 5% CO2 humidified atmosphere. After 8 days of BrdU treatment cells were treated with various test compounds or drugs (e.g., azithromycin, roxithromycin, telithromycin, erythromycin, etc.) for another 3-5 days. BrdU or vehicle treatments were continued during the drug treatments as well.
Sulphorhodamine B assay: After the incubation of the plates cell viability was measured by Sulphorhodamine B assay (SRB). The assay is based on the measurement of cellular protein contents. Cells were fixed with 10% Trichloroacetic acid (TCA) for 1 hour at […], and were dried overnight at room temperature. Then, plates were incubated with SRB for 30 min, washed twice with 1% acetic acid and air dried for at least 1 h. Finally, the protein-bound dye was dissolved in a 10 mM Tris, pH 8.8, solution and read using a plate reader at 540-nm.

## CC[C@H]1OC(=O)[C@H](C)[C@@H](O[C@@H]2C[C@@](C)(OC)[C@@H](O)[C@H](C)O2)[C@H](C)[C@@H](O[C@@H]2O[C@H](C)C[C@H](N(C)C)[C@H]2OC(=O)OCc2ccc(O[C@@H]3O[C@H](COC(C)=O)[C@H](OC(C)=O)[C@H](OC(C)=O)[C@H]3OC(C)=O)c([N+](=O)[O-])c2)[C@](C)(O)C[C@@H](C)CN(C)[C@H](C)[C@@H](O)[C@]1(C)O [Compound [I], [(2R,3S,4S,5R,6S)-3,4,5-triacetoxy-6-[4-[[(2S,3R,4S,6R)-4-(dimethylamino)-2-[[(2R,3S,4R,5R,8R,10R,11R,12S,13S,14R)-2-ethyl-3,4,10-trihydroxy-13-[(2S,4R,5S,6S)-5-hydroxy-4-methoxy-4,6-dimethyl-tetrahydropyran-2-yl]oxy-3,5,6,8,10,12,14-heptamethyl-15-oxo-1-oxa-6-azacyclopentadec-11-yl]oxy]-6-methyl-tetrahydropyran-3-yl]oxycarbonyloxymethyl]-2-nitro-phenoxy]tetrahydropyran-2-yl]methyl acetate]
10 μM
  effect on senescent cells (SRB): effective
50 μM, senescent vs control MRC-5
  selectivity towards senescent MRC-5 fibroblasts (SRB): exceptional selectivity
